Data published in US20050282755A1, “Compositions having antimicrobial activity and uses thereof” (priority 2004, published 2005).
≈ marks a conversion by molar mass, not a printed value. Like-named read-outs stand apart in the source and are kept apart here. Non-standard residues stand in square brackets, D forms with d. Residues, ends and D or L forms follow the SMILES beside them. *: point of attachment. Stearoyl = CCCCCCCCCCCCCCCCCC(=O)*; Lauroyl = CCCCCCCCCCCC(=O)*

How the values were obtained:
[1] = system: IL-12 release; experiment: Anti-inflammation assay: IL-12 release in PBMCs stimulated by P. acnes (IL-12p70 ELISA); assay type: cell-based, human; settings: for reduction of IL-12 release in PBMs stimulated by P. acnes: 12.5 to 0.78 micrograms per milliliter; for IC50: PBMCs stimulated by P. acnes, over night, read-out: IC50 value, reduction of IL-12 release
Method: An assay that detected reductions in IL-12 released in whole human blood cells (PBMCs) was utilized to detect reductions in inflammation elicited by peptide compositions described herein. The assay utilized the following materials and reagents: whole human blood cells; P. acnes; peptides 55, 67 and 93 from Table 3; IL-12p70 ELISA kit (eBiosciences); RPMI 1640 growth medium; PBS; and a 96-well microtiter plate. PBMCs were prepared from whole human blood cells according to standard procedures and cells were resuspended in RPMI 1640 and 10% FCS. Cells were seeded at 250,000 cells per well in a 96-well microtiter plate and incubated for 90 minutes. […] Controls included untreated cells, P. acnes alone or a peptide alone. The cells were incubated over night at 37° C., and cell supernatants were collected and stored at −80° C. for use in an IL-12 ELISA assay (eBiosciences). A 1:1 dilution of supernatant was utilized to perform the IL-12 ELISA following the protocol provided by the manufacturer.

[2] = system: Staphylococcus aureus ATCC 29213; experiment: MIC, NCCLS M7-A6 broth microdilution, cation-adjusted Mueller Hinton broth (Table 9, no superscript); assay type: cell-based; settings: ATCC 29213
In short: (§1)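 Values come from a broth microdilution assay run in cation-adjusted Mueller Hinton broth with an inoculum of 5×10^5 to 1×10^6 CFU/milliliter, incubated overnight at 37° C and read as absence of visible turbidity.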

[3] = system: Salmonella dublin (Lane); experiment: MIC, NCCLS M7-A6 broth microdilution (Table 9, no superscript); assay type: cell-based
In short: as §1

[4] = system: Jurkat cells; assay type: cell-based; settings: 16 h
Method: Toxicity of peptide compositions for mammalian cells was determined by using a metabolic viability assay. For this assay 4×10^5 HeLa cells were seeded per well into a microwell plate (50 microliters volume). Jurkat cells also were utilized in separate experiments. The cells were incubated for 16 hours at 37° C. under mammalian cell culture conditions. Two fold serial dilutions for each peptide were prepared and added to the cells (final volume 100 microliters) and incubated for 16 hours at 37° C. For each dilution series control wells containing cells without peptide were included. The metabolic activity and viability of the cells were determined by using a commercially available assay (CellTiter96 assay, Promega Corp.). According to manufacturer's protocol 20 microliters of CellTiter reagent was added to each well and incubated at 37° C. for 1-4 hours. The CellTiter assay is a commercial version of the MTT assay, which measures the conversion of a tetrazolium […] into a colored formazan salt in metabolically active cells. The formation of the formazan product can be measured at 470 nm and is generally accepted as a measure of cellular viability. The cells were incubated at 37° C. and monitored for color development. The conversion of CellTiter reagent was measured at 470 nm using a Versamax plate reader (Molecular Devices). The viability of peptide treated cells is expressed as IC50 (i.e., concentration that leads to a 50% reduction of viability relative to the untreated control). Table 7A reports IC50 values for HeLa cells cultured in OptiMEM or 10% FBS when contacted with peptide compositions from Table 3, and Table 7B reports IC50 values for HeLa cells or Jurkat cells contacted with peptide compositions from Table 3.

[5] = system: HeLa cells; settings: 16 h
[6] = system: Propionibacterium acnes ATCC 6919; assay type: cell-based
In short: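 MIC by non-standard broth microdilution in reinforced Clostridial broth, log-phase P. acnes inoculum at 5×10^5 to 1×10^6 CFU/mL. Plates were held anaerobically 48–72 h at 37° C; MIC was the lowest peptide concentration with no visible turbidity relative to the no-peptide control.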

[7] = system: Candida albicans ATCC 18804; experiment: MIC in yeasts, NCCLS M27-A2 broth microdilution, RPMI 1640 (Table 9, letter e); assay type: cell-based; settings: ATCC 18804
In short: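 Broth microdilution per NCCLS M27-A2 in RPMI 1640 with glutamine and phenol red, final inoculum 0.5×10^3–2.5×10^3 CFU/milliliter. Incubated 24 to 48 hours at 37° C; MIC is the lowest peptide concentration with no visible growth.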

[8] = system: Staphylococcus aureus ATCC 29213; settings: ATCC 29213, pH 7.4
[9] = system: Salmonella dublin (Lane); settings: pH 7.4
[10] = system: Escherichia coli ATCC 25922; experiment: MIC, NCCLS M7-A6 broth microdilution (Table 9, no superscript); assay type: cell-based; settings: ATCC 25922
In short: as §1

[11] = system: Pseudomonas aeruginosa ATCC 27853; experiment: as above; assay type: cell-based; settings: ATCC 27853
In short: as §1

[12] = system: Staphylococcus epidermidis ATCC 12228; experiment: as above; assay type: cell-based; settings: ATCC 12228
In short: as §1

Row | Compound | reduction of IL-12 release in PBMs stimulated by P. acnes [1] | MIC S. aureus [2] | MIC S. dublin [3] | IC50 [4] | IC50 [5] | MIC P. acnes [6] | MIC C. albicans [7] | MIC S. aureus [8] | MIC S. dublin [9] | IC50 [1] | MIC E. coli [10] | MIC P. aeruginosa [11] | MIC S. epidermidis [12]
1 | CCCCCCCCCCCCCCCCCC(=O)N[C@H](C(=O)N[C@@H](CCCNC(=N)N)C(=O)N[C@H](C(=O)N[C@@H](CO)C(=O)N[C@@H](CCCNC(=N)N)C(=O)N[C@H](C(=O)NCC(=O)N[C@@H](CCCNC(=N)N)C(=O)N[C@@H](CO)C(=O)N[C@@H](CCCNC(=N)N)C(=O)N[C@@H](Cc1c[nH]c2ccccc12)C(=O)N[C@@H](CCCNC(=N)N)C(=O)N[C@@H](CC(=O)O)C(=O)N[C@@H](Cc1c[nH]c2ccccc12)C(=O)N[C@@H](CO)C(=O)N[C@@H](CCCNC(=N)N)C(=O)N[C@@H](CC(N)=O)C(=O)N[C@@H](Cc1ccccc1)C(=O)N[C@@H](CCSC)C(=O)N[C@@H](CCCNC(=N)N)C(N)=O)[C@@H](C)O)C(C)C)[C@@H](C)O [Peptide 67] (Stearoyl-TRVSRTGRSRWRDWSRNFMR-NH2) | dose response of reduction of IL-12 release | 64 µg/mL (≈ 22.2 µM) | 64 µg/mL (≈ 22.2 µM) |  |  |  |  |  |  |  |  |  | 
2 | CSCC[C@H](NC(=O)[C@H](Cc1ccccc1)NC(=O)[C@H](CC(N)=O)NC(=O)[C@H](CCCNC(=N)N)NC(=O)[C@H](CO)NC(=O)[C@H](Cc1c[nH]c2ccccc12)NC(=O)[C@H](CC(=O)O)NC(=O)[C@H](CCCNC(=N)N)NC(=O)[C@H](Cc1c[nH]c2ccccc12)NC(=O)[C@H](CCCNC(=N)N)NC(=O)[C@H](CO)NC(=O)[C@H](CCCNC(=N)N)NC(=O)CNC(=O)[C@@H](NC(=O)[C@H](CCCNC(=N)N)NC(=O)[C@H](CO)NC(=O)[C@@H](NC(=O)[C@H](CCCNC(=N)N)NC(=O)[C@@H](NC(C)=O)[C@@H](C)O)C(C)C)[C@@H](C)O)C(=O)N[C@@H](CCCNC(=N)N)C(=O)N[C@@H](C)C(=O)N[C@@H](C)C(N)=O [Peptide 1] |  |  |  | > 100 µM | > 100 µM |  |  |  |  |  |  |  | 
3 | CSCC[C@@H](NC(=O)[C@@H](Cc1ccccc1)NC(=O)[C@@H](CC(N)=O)NC(=O)[C@@H](CCCNC(=N)N)NC(=O)[C@@H](CO)NC(=O)[C@@H](Cc1c[nH]c2ccccc12)NC(=O)[C@@H](CC(=O)O)NC(=O)[C@@H](CCCNC(=N)N)NC(=O)[C@@H](Cc1c[nH]c2ccccc12)NC(=O)[C@@H](CCCNC(=N)N)NC(=O)[C@@H](CO)NC(=O)[C@@H](CCCNC(=N)N)NC(C)=O)C(=O)N[C@H](CCCNC(=N)N)C(N)=O [Peptide 95, Ac-rsrwrdwsrnfmr-NH2] (Ac-[dR][dS][dR][dW][dR][dD][dW][dS][dR][dN][dF][dM][dR]-NH2) |  |  |  |  |  | 12.5 µg·days/mL | 16e ug/mL | 12.5b ug/mL | 6b ug/mL |  |  |  | 
4 | H2N-kkkkkkkkaatrvartgrsrwrdvarnfmr-NH2 (KKKKKKKKAATRVARTGRSRWRDVARNFMR; N-terminal amine, C-terminal amide) [Peptide 55] |  |  |  |  |  |  |  |  |  | > 20 µM |  |  | 
5 | CSCC[C@H](NC(=O)[C@H](Cc1ccccc1)NC(=O)[C@H](CC(N)=O)NC(=O)[C@H](CCCNC(=N)N)NC(=O)[C@H](C)NC(=O)[C@H](Cc1c[nH]c2ccccc12)NC(=O)[C@H](CC(=O)O)NC(=O)[C@H](CCCNC(=N)N)NC(=O)[C@H](Cc1c[nH]c2ccccc12)NC(=O)[C@H](CCCNC(=N)N)NC(=O)[C@H](CO)NC(=O)[C@H](CCCNC(=N)N)NC(=O)CNC(=O)[C@@H](NC(=O)[C@H](CCCNC(=N)N)NC(=O)[C@H](C)NC(=O)[C@@H](NC(=O)[C@H](CCCNC(=N)N)NC(=O)[C@@H](NC(C)=O)[C@@H](C)O)C(C)C)[C@@H](C)O)C(=O)N[C@@H](CCCNC(=N)N)C(N)=O [Peptide 37] (Ac-TRVARTGRSRWRDWARNFMR-NH2) |  |  |  |  |  | 100 µg·days/mL | 64e ug/mL | 25b ug/mL | 25b ug/mL |  | >64 µg/mL | >64 µg/mL | >64 µg/mL
6 | CSCC[C@@H](NC(=O)[C@@H](Cc1ccccc1)NC(=O)[C@@H](CC(N)=O)NC(=O)[C@@H](CCCNC(=N)N)NC(=O)[C@@H](CO)NC(=O)[C@@H](Cc1c[nH]c2ccccc12)NC(=O)[C@@H](CC(=O)O)NC(=O)[C@@H](CCCNC(=N)N)NC(=O)[C@@H](Cc1c[nH]c2ccccc12)NC(=O)[C@@H](CCCNC(=N)N)NC(=O)[C@@H](CO)NC(=O)[C@@H](CCCNC(=N)N)NC(=O)CNC(=O)[C@H](NC(=O)[C@@H](CCCNC(=N)N)NC(=O)[C@@H](CO)NC(=O)[C@H](NC(=O)[C@@H](CCCNC(=N)N)NC(=O)[C@H](NC(C)=O)[C@H](C)O)C(C)C)[C@H](C)O)C(=O)N[C@H](CCCNC(=N)N)C(N)=O [Peptide 33, Ac-trvsrtgrsrwrdwsrnfmr-NH2] (Ac-[dT][dR][dV][dS][dR][dT]G[dR][dS][dR][dW][dR][dD][dW][dS][dR][dN][dF][dM][dR]-NH2) |  | >64 µg/mL | 64 µg/mL (≈ 24.1 µM) | 67.5 µM | > 100 µM | 12.5 µg·days/mL | 16e ug/mL |  |  |  | >64 µg/mL | >64 µg/mL | 32 µg/mL (≈ 12.1 µM)
7 | CCCCCCCCCCCC(=O)N[C@@H](CCCNC(=N)N)C(=O)N[C@@H](CO)C(=O)N[C@@H](CCCNC(=N)N)C(=O)N[C@@H](Cc1c[nH]c2ccccc12)C(=O)N[C@@H](CCCNC(=N)N)C(=O)N[C@@H](CC(=O)O)C(=O)N[C@H](C(=O)N[C@@H](C)C(=O)N[C@@H](CCCNC(=N)N)C(=O)N[C@@H](CC(N)=O)C(=O)N[C@@H](Cc1ccccc1)C(=O)N[C@@H](CCSC)C(=O)N[C@@H](CCCNC(=N)N)C(N)=O)C(C)C [Peptide 88, Lauryl-RSRWRDVARNFMR-NH2] (Lauroyl-RSRWRDVARNFMR-NH2) |  |  |  |  |  | 25 µg·days/mL | 32e ug/mL | 3b ug/mL | 3b ug/mL |  |  |  | 
8 | CSCC[C@H](NC(=O)[C@H](Cc1ccccc1)NC(=O)[C@H](CC(N)=O)NC(=O)[C@H](CCCNC(=N)N)NC(=O)[C@H](CO)NC(=O)[C@@H](NC(=O)[C@H](CC(=O)O)NC(=O)[C@H](CCCNC(=N)N)NC(=O)[C@H](Cc1c[nH]c2ccccc12)NC(=O)[C@H](CCCNC(=N)N)NC(=O)[C@H](CO)NC(=O)[C@H](CCCNC(=N)N)NC(C)=O)C(C)C)C(=O)N[C@@H](CCCNC(=N)N)C(N)=O [Peptide 93, Ac-RSRWRDVSRNFMR-NH2] (Ac-RSRWRDVSRNFMR-NH2) | dose response of reduction of IL-12 release | >64 µg/mL | >64 µg/mL |  |  |  |  |  |  | 0.8 µM | >64 µg/mL | >64 µg/mL | >64 µg/mL
